From patent US7595401B2, “Therapeutic compounds and their use in cancer” (Myriad Pharmaceuticals, Inc., priority 2006, dated 2009)

Test system: purified human Hsp90
Experiment: Binding Assay: fluorescence polarization with BODIPY-labeled geldanamycin
Settings: 5 μM compound, BODIPY-GM 10 nM, Hsp90 30 nM
Outline: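 Fluorescence polarization competition with BODIPY-geldanamycin (10 nM final) and human Hsp90 (30 nM final) in HEPES-KOH pH 7.3 buffer with molybdate, NP-40, DTT; 2% DMSO, overnight at room temperature. Read 485/530 nm; percent inhibition from mP normalized to DMSO controls, fluorescent-compound points excluded.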

| SMILES | % Inhibition at 5 μM Compound Concentration [%] |
| --- | --- |
| COc1ccc(OC)c(Sc2nc3c(N)ncn(CCc4cccs4)c-3n2)c1 [Example 200, 8-(2,5-dimethoxy-phenylsulfanyl)-3-(2-thiophen-2-yl-ethyl)-3H-purin-6-ylamine] | 18 |
| Nc1ncn(CCc2cccs2)c2nc(Sc3cc4c(cc3Br)OCO4)nc1-2 [Example 204, 8-(6-bromo-benzo[1,3]dioxol-5-ylsulfanyl)-3-(2-thiophen-2-yl-ethyl)-3H-purin-6-ylamine] | 11 |
| Nc1ncn(CCc2ccccc2[N+](=O)[O-])c2nc(Sc3cc4c(cc3Br)OCO4)nc1-2 [Example 208, 8-(6-bromo-benzo[1,3]dioxol-5-ylsulfanyl)-3-[2-(2-nitro-phenyl)-ethyl]-3H-purin-6-ylamine] | 46 |
| Nc1ncn(CCc2ccccc2)c2nc(Cc3cc4c(cc3Br)OCO4)nc1-2 [Example 210, 8-(6-Bromo-benzo[1,3]dioxol-5-ylmethyl)-3-phenethyl-3H-purin-6-ylamine] | 8 |
| Nc1ncn(CCc2ccccc2)c2nc(Sc3cc(OC(F)(F)F)ccc3Cl)nc1-2 [Example 229, 8-{[2-Chloro-5-(trifluoromethoxy)phenyl]thio}-3-(2-phenylethyl)-3H-purin-6-amine] | 24 |
| COc1ccc(OC)c(Sc2nc3c(N)ncn(C4Cc5ccccc5C4O)c-3n2)c1 (stereo not shown) [Example 236, 2-{6-Amino-8-[(2,5-dimethoxyphenyl)thio]-3H-purin-3-yl}indan-1-ol] | 0 |
| COc1ccc(Sc2nc3c(N)ncn(CCc4ccccc4)c-3n2)cc1Cl [Example 241, 8-[(3-Chloro-4-methoxyphenyl)thio]-3-(2-phenylethyl)-3H-purin-6-amine] | 0 |
| COc1ccc(OC)c(Sc2nc3c(N)ncnc3n2CCC2(F)C(F)(F)C(F)(F)C(F)(F)C(F)(F)C2(F)F)c1 [Example 245, 8-[(2,5-Dimethoxyphenyl)thio]-9-[2-(undecafluorocyclohexyl)ethyl]-9H-purin-6-amine] | 1 |

More lines, now with the values ahead:

| % Inhibition at 5 μM Compound Concentration [%] | SMILES |
| --- | --- |
| 9 | Nc1ncn(CCc2ccsc2)c2nc(Sc3cc4c(cc3Br)OCO4)nc1-2 [Example 202, 8-(6-bromo-benzo[1,3]dioxol-5-ylsulfanyl)-3-(2-thiophen-3-yl-ethyl)-3H-purin-6-ylamine] |
| 80 | COc1ccc(OC)c(Sc2nc3c(N)ncnc3n2CCc2ccccc2[N+](=O)[O-])c1 [Example 205, 8-(2,5-Dimethoxy-phenylsulfanyl)-9-[2-(2-nitro-phenyl)-ethyl]-9H-purin-6-ylamine] |
| 0 | COc1ccc(OC)c(Sc2nc3c(N)ncn(CCc4ccccc4[N+](=O)[O-])c-3n2)c1 [Example 206, 8-(2,5-dimethoxy-phenylsulfanyl)-3-[2-(2-nitro-phenyl)-ethyl]-3H-purin-6-ylamine] |
| 4 | CC(C)(C)OC(=O)Nc1ccc(CCn2cnc(N)c3nc(Sc4cc5c(cc4Br)OCO5)nc2-3)cc1 [Example 212, (4-{2-[6-amino-8-(6-bromo-benzo[1,3]dioxol-5-ylsulfanyl)-purin-3-yl]-ethyl}-phenyl)carbamic acid tert-butyl ester] |
| 0 | COc1ccc(OC)c(Sc2nc3c(N)ncn(CCc4ccc(NC(=O)OC(C)(C)C)cc4)c-3n2)c1 [Example 215, (4-{2-[6-amino-8-(2,5-dimethoxy-phenylsulfanyl)-purin-3-yl]-ethyl}-phenyl)-carbamic acid tert-butyl ester] |
| 78 | COc1ccc(OC)c(Sc2nc3c(N)ncnc3n2CCc2ccc(N)cc2)c1 [Example 216, 9-[2-(4-Amino-phenyl)-ethyl]-8-(2,5-dimethoxy-phenylsulfanyl)-9H-purin-6-ylamine] |
| 0 | Nc1ncn(CC(c2ccccc2)C2CCCCC2)c2nc(Sc3cc4c(cc3Br)OCO4)nc1-2 (stereo not shown) [Example 227, 8-[(6-Bromo-1,3-benzodioxol-5-yl)thio]-3-(2-cyclohexyl-2-phenylethyl)-3H-purin-6-amine] |
| 0 | Nc1ncn(CCc2ccccc2Cl)c2nc(Sc3cc4c(cc3Br)OCCO4)nc1-2 [Example 234, 8-[(7-Bromo-2,3-dihydro-1,4-benzodioxin-6-yl)thio]-3-[2-(2-chlorophenyl)ethyl]-3H-purin-6-amine] |

Same assay, conditions: BODIPY-GM 10 nM, Hsp90 30 nM

| SMILES | IC50 [µM] |
| --- | --- |
| Nc1ncnc2c1nc(Sc1cc3c(cc1Br)OCO3)n2CCc1ccsc1 [Example 201, 8-(6-Bromo-benzo[1,3]dioxol-5-ylsulfanyl)-9-(2-thiophen-3-yl-ethyl)-9H-purin-6-ylamine] | 0.072 |
| Nc1ncnc2c1nc(Sc1cc3c(cc1Br)OCO3)n2CCc1cccs1 [Example 203, 8-(6-Bromo-benzo[1,3]dioxol-5-ylsulfanyl)-9-(2-thiophen-2-yl-ethyl)-9H-purin-6-ylamine] | 0.09 |
| Nc1ncn(CCc2ccccc2[N+](=O)[O-])c2nc(Sc3cc4c(cc3Br)OCO4)nc1-2 [Example 208, 8-(6-bromo-benzo[1,3]dioxol-5-ylsulfanyl)-3-[2-(2-nitro-phenyl)-ethyl]-3H-purin-6-ylamine] | > 25 |
| COc1ccc(OC)c(Sc2nc3c(N)ncnc3n2CCc2cc(C(F)(F)F)cc(C(F)(F)F)c2)c1 [Example 219, 9-[2-(3,5-Bistrifluoromethyl-phenyl)-ethyl]-8-(2,5-dimethoxy-phenylsulfanyl)-9H-purin-6-ylamine] | > 8 |
| Nc1ncnc2c1nc(Sc1cc3c(cc1Br)OCO3)n2CC1(c2ccc(Cl)cc2)CC1 [Example 221, 8-(6-Bromo-benzo[1,3]dioxol-5-ylsulfanyl)-9-[1-(4-chloro-phenyl)-cyclopropylmethyl]-9H-purin-6-ylamine] | > 9 |
| COc1ccc(OC)c(Sc2nc3c(N)ncnc3n2CCc2cccc([N+](=O)[O-])c2)c1 [Example 223, 8-(2,5-Dimethoxy-phenylsulfanyl)-9-[2-(3-nitro-phenyl)-ethyl]-9H-purin-6-ylamine] | 0.5 |
| Nc1ncnc2c1nc(Sc1cc3c(cc1Br)OCO3)n2CC(c1ccccc1)C1CCCCC1 (stereo not shown) [Example 226, 8-[(6-Bromo-1,3-benzodioxol-5-yl)thio]-9-(2-cyclohexyl-2-phenylethyl)-9H-purin-6-amine] | > 25 |
| Nc1ncnc2c1nc(Sc1cc3c(cc1Br)OCCO3)n2CCc1ccccc1Cl [Example 233, 8-[(7-Bromo-2,3-dihydro-1,4-benzodioxin-6-yl)thio]-9-[2-(2-chlorophenyl)ethyl]-9H-purin-6-amine] | 0.5 |
| COc1cc(Sc2nc3c(N)nc(F)nc3n2CCc2ccccc2Cl)cc(OC)c1OC [Example 237, 9-[2-(2-Chlorophenyl)ethyl]-2-fluoro-8-[(3,4,5-trimethoxyphenyl)thio]-9H-purin-6-amine] | > 25 |
| Nc1ncnc2c1nc(Sc1cc3c(cc1Br)OCO3)n2CCC1(F)C(F)(F)C(F)(F)C(F)(F)C(F)(F)C1(F)F [Example 243, 8-[(6-Bromo-1,3-benzodioxol-5-yl)thio]-9-[2-(undecafluorocyclohexyl)ethyl]-9H-purin-6-amine] | > 1 |

The remaining lines, values ahead:

| IC50 [µM] | SMILES |
| --- | --- |
| 0.24 | COc1ccc(OC)c(Sc2nc3c(N)ncnc3n2CCc2ccccc2[N+](=O)[O-])c1 [Example 205, 8-(2,5-Dimethoxy-phenylsulfanyl)-9-[2-(2-nitro-phenyl)-ethyl]-9H-purin-6-ylamine] |
| 0.038 | Nc1ncnc2c1nc(Sc1cc3c(cc1Br)OCO3)n2CCc1ccccc1[N+](=O)[O-] [Example 207, 8-(6-Bromo-benzo[1,3]dioxol-5-ylsulfanyl)-9-[2-(2-nitro-phenyl)-ethyl]-9H-purin-6-ylamine] |
| 0.45 | Nc1ncnc2c1nc(Cc1cc3c(cc1Br)OCO3)n2CCc1ccccc1 [Example 209, 8-(6-Bromo-benzo[1,3]dioxol-5-ylmethyl)-9-phenethyl-9H-purin-6-ylamine] |
| > 25 | CC(C)(C)OC(=O)Nc1ccc(CCn2c(Sc3cc4c(cc3Br)OCO4)nc3c(N)ncnc32)cc1 [Example 211, (4-{2-[6-Amino-8-(6-bromo-benzo[1,3]dioxol-5-ylsulfanyl)-purin-9-yl]-ethyl}-phenyl)carbamic acid tert-butyl ester] |
| 0.95 | COc1ccc(OC)c(Sc2nc3c(N)ncnc3n2CCc2ccc(NC(=O)OC(C)(C)C)cc2)c1 [Example 214, (4-{2-[6-Amino-8-(2,5-dimethoxy-phenylsulfanyl)-purin-9-yl]-ethyl}-phenyl)-carbamic acid tert-butyl ester] |
| > 8 | COc1ccc(OC)c(Sc2nc3c(N)ncnc3n2CCc2ccc(N)cc2)c1 [Example 216, 9-[2-(4-Amino-phenyl)-ethyl]-8-(2,5-dimethoxy-phenylsulfanyl)-9H-purin-6-ylamine] |
| > 10 | COc1ccc(OC)c(Sc2nc3c(N)ncnc3n2CCc2cccc(OC(F)(F)F)c2)c1 [Example 217, 8-(2,5-Dimethoxy-phenylsulfanyl)-9-[2-(3-trifluoromethoxy-phenyl)-ethyl]-9H-purin-6-ylamine] |
| > 3 | COc1ccc(OC)c(Sc2nc3c(N)ncnc3n2CCc2c(F)c(F)c(F)c(F)c2F)c1 [Example 218, 8-(2,5-Dimethoxy-phenylsulfanyl)-9-(2-pentafluorophenyl-ethyl)-9H-purin-6-ylamine] |
| > 5 | O=c1[nH]cnc2c1nc(Sc1ccc3c(c1)OCO3)n2CCc1ccccc1 [Example 224, 8-(Benzo[1,3]dioxol-5-ylsulfanyl)-9-phenethyl-1,9-dihydro-purin-6-one] |
| > 8 | Nc1ncnc2c1nc(Sc1cc(OC(F)(F)F)ccc1Cl)n2CCc1ccccc1 [Example 228, 8-{[2-Chloro-5-(trifluoromethoxy)phenyl]thio}-9-(2-phenylethyl)-9H-purin-6-amine] |
| 0.21 | COc1ccc(OC)c(Sc2nc3c(N)nc(F)nc3n2CCc2ccccc2)c1 [Example 230, 8-[(2,5-Dimethoxyphenyl)thio]-2-fluoro-9-(2-phenylethyl)-9H-purin-6-amine] |
| > 25 | COc1ccc(OC)c(Sc2nc3c(N)ncnc3n2CCc2ccccc2O)c1 [Example 231, 2-(2-{6-Amino-8-[(2,5-dimethoxyphenyl)thio]-9H-purin-9-yl}ethyl)phenol] |
| > 8 | COc1ccc(OC)c(Sc2nc3c(N)ncnc3n2C2Cc3ccccc3C2O)c1 (stereo not shown) [Example 235, 2-{6-Amino-8-[(2,5-dimethoxyphenyl)thio]-9H-purin-9-yl}indan-1-ol] |
| > 25 | COc1cc(Sc2nc3c(N)nc(F)nc3n2CCc2c(Cl)cccc2Cl)c(Cl)c(OC)c1OC [Example 239, 8-[(2-Chloro-3,4,5-trimethoxyphenyl)thio]-9-[2-(2,6-dichlorophenyl)ethyl]-2-fluoro-9H-purin-6-amine] |
